For 1 molecule, IC50 results are on record in patent US7132504B2, “Hepatitis C virus inhibitors” (Bristol-Myers Squibb Company, priority 2003, dated 2006).

One assay has as its target T1, human liver cathepsin B (Homo sapiens, UniProt P07858).
T1 construct: purchased Sigma; host or cells: human liver
The assay can be described thus: Specificity assay, cathepsin B. It is filed as biochemical. The conditions noted are these: assay interference at higher concentrations. As to the method: (§1) The specificities of compounds of the present invention were determined against a variety of serine proteases: human neutrophil elastase (HNE), porcine pancreatic elastase (PPE) and human pancreatic chymotrypsin and one cysteine protease: human liver cathepsin B. In all cases a 96-well plate format protocol using colorimetric p-nitroaniline (pNA) substrate specific for each enzyme was used as described previously (PCT Patent Application No. WO 00/09543) with some modifications to the serine protease assays. All enzymes were purchased from Sigma while the substrates were from Bachem.
(§2) Each assay included a 2 h enzyme-inhibitor pre-incubation at room temperature followed by addition of substrate and hydrolysis to ˜30% conversion as measured on a Spectramax Pro microplate reader. Compound concentrations varied from 100 to 0.4 μM depending on their potency. […]
(§3) The percentage of inhibition was calculated using the formula: [1−((UVinh−UVblank)/(UVctl−UVblank))]×100 […]

In assay [1] the test system is human pancreatic chymotrypsin. The assay can be described thus: Specificity assay, chymotrypsin. Conditions: 2 h enzyme-inhibitor pre-incubation. The format is biochemical. The method, then:
as §1, §2, §3

Assay [2] concerns the target T2, NS3/4A protease complex, H77 strain (Hepatitis C virus genotype 1a, UniProt P27958, C1454S/C1711G).
T2 construct: DNA encoding the recombinant HCV NS3/4A protease complex (amino acids 1027 to 1711) for these strains; inferred from pET21b vector and Ni-NTA purification; made in house; host or cells: Escherichia coli BL21 (DE3), pET21b
The assay can be described thus: Recombinant HCV NS3/4A protease complex FRET peptide assay, H77 strain. The format is biochemical, HCV genotype 1a (H77). The text has this: (§4) The purpose of this in vitro assay was to measure the inhibition of HCV NS3 protease complexes, derived from the BMS strain, H77 strain or J416S strain, as described below, by compounds of the present invention. This assay provides an indication of how effective compounds of the present invention would be in inhibiting HCV proteolytic activity.
(§5) Serum from an HCV-infected patient was obtained from Dr. T. Wright, San Francisco Hospital. An engineered full-length cDNA (compliment deoxyribonucleic acid) template of the HCV genome (BMS strain) was constructed from DNA fragments obtained by reverse transcription-PCR (RT-PCR) of serum RNA (ribonucleic acid) and using primers selected on the basis of homology between other genotype 1a strains. From the determination of the entire genome sequence, a genotype 1a was assigned to the HCV isolate according to the classification of Simmonds et al. (See P Simmonds, K A Rose, S Graham, S W Chan, F McOmish, B C Dow, E A Follett, P L Yap and H Marsden, J. Clin. Microbiol., 31(6), 1493–1503 (1993)). […]

The target of assay [3] is BMS strain of the NS3/4A protease complex (UniProt P27958, C1454S/C1711G, species not given/STRAIN_BMS). The assay can be described thus: Recombinant HCV NS3/4A protease complex FRET peptide assay, BMS strain. It is filed as biochemical, HCV genotype 1a (BMS strain).
Excerpt: as §4, §5

By IC50 is commonly meant the concentration at which inhibition is half-maximal.

Molecules are shown by their SMILES.

T2 sequence (P27958 1027-1711 C1454S/C1711G, one chain of several): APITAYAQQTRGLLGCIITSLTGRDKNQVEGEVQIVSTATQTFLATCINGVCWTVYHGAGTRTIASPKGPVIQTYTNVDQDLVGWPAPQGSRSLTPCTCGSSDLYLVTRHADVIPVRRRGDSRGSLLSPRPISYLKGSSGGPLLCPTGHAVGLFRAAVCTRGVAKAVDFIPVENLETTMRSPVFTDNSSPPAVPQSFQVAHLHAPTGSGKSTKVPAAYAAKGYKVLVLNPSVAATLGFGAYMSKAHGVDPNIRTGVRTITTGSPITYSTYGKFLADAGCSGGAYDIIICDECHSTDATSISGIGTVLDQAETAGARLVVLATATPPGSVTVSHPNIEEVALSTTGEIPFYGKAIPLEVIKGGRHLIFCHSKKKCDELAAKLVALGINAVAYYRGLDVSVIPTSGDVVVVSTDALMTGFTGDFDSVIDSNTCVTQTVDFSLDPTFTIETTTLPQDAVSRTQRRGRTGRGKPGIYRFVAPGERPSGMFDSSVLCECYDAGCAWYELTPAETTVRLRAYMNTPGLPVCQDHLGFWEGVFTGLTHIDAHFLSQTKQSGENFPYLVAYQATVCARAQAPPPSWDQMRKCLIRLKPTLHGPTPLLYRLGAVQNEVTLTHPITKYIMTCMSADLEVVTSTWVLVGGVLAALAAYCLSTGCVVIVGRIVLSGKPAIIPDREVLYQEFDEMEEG

On to `C=CC1C[C@]1(NC(=O)[C@@H]1C[C@@H](Oc2cc(-c3ccccc3)nc3cc(OC)ccc23)CN1C(=O)[C@@H](NC(=O)OC)C(C)(C)C)C(=O)NS(=O)(=O)N(C)Cc1ccccc1` (stereo partly shown) [Compound 9], for which the IC50 at human liver cathepsin B is over 50000 nM; in assay [1], over 200000 nM; in assay [2] it was 62 nM; in assay [3], 128 nM.
